Results as given in patent US20080279897A1, “Method of Treating Cellular Damage” (MEDVET SCIENCE PTY. LTD., priority 2005, published 2008).
Entries after “also recorded” stand apart in the source; their conditions may differ.

Columns and labels:
[1] = tested on: SphK; experiment: SphK activity in aorta and heart of STZ-induced diabetic rats; assay type: in vivo, rat; conditions: STZ-induced diabetic rats treated with insulin, 2 wk post-onset of diabetes
Procedure: Male Sprague-Dawley rats weighing 270-290 g were housed in a room under controlled temperature conditions (22° C.) and 12/12-hr of light/dark cycles. Diabetes was induced with 80 mg/kg streptozotocin (STZ) (Sigma-Aldrich) dissolved in citrate buffer (20 mM, pH 4.5) that was administered as a single intraperitoneal injection. Control rats were injected with an equivalent volume of the vehicle only. After injection (24 h), diabetes was diagnosed by the development of hyperglycaemia (>14 mmol/L blood glucose). One-half of the diabetic rats were randomly selected to receive insulin treatment (Linplant, one implant/200 g body wt; LinShin, Canada). Blood glucose levels were monitored every 4 days using Glucostix reagent strips (Boehringer Mannheim, Indianapolis, Ind.). Two weeks after the onset of diabetes, rats were killed for the study. […]
As described previously (Xia et al., 1999, J. Biol. Chem. 274:34499-34505), SphK activity was routinely determined using D-erythro-sphingosine (Biomol, Plymouth Meeting, Pa.) and [γ^32P]ATP (Geneworks, Adelaide, Australia) as substrates, and defined as picomoles of S1P formed per min per mg protein. The formation of S1P in vivo was measured in the permeabilized cells as previously described (Xia et al., 1998, Proc. Natl. Acad. Sci. U.S.A 95:14196-14201).

[2] = tested on: sphingosine kinase; experiment: Sphingosine kinase activity in vitro (vascular endothelial cells); assay type: cell-based
[3] = Glycemic control in STZ-induced diabetic rats; assay type: in vivo, rat; conditions: insulin pump, within several hours
Procedure: Male Sprague-Dawley rats weighing 270-290 g were housed in a room under controlled temperature conditions (22° C.) and 12/12-hr of light/dark cycles. Diabetes was induced with 80 mg/kg streptozotocin (STZ) (Sigma-Aldrich) dissolved in citrate buffer (20 mM, pH 4.5) that was administered as a single intraperitoneal injection. Control rats were injected with an equivalent volume of the vehicle only. After injection (24 h), diabetes was diagnosed by the development of hyperglycaemia (>14 mmol/L blood glucose). One-half of the diabetic rats were randomly selected to receive insulin treatment (Linplant, one implant/200 g body wt; LinShin, Canada). […] […] All experiments were conducted in accordance with the PC-2 procedure of Institute of Medical and Veterinary Science (IMVS) and approved by the IMVS Animal Ethics Committee.

insulin
SphK activity in aorta of diabetic rats [1]: significant reduction; also recorded: completely prevented | SphK activity in heart of diabetic rats [1]: significant reduction; also recorded: completely prevented | inhibitory effect on sphingosine kinase activity in vitro [2]: no inhibitory effect | glycemic control [3]: near euglycemia
